Test results from patent publication US8680111B2 (Pfizer Inc., priority 2012, dated 2014).

Assays:
[1] = target: T1, human recombinant wild-type ALK kinase domain (amino acids 1093-1411) (Homo sapiens, UniProt Q9UM73); test: Wild-type ALK enzyme assay (microfluidic mobility shift); type: biochemical; conditions: ATP 60 μM, competitive inhibition fit, read-out: WT ALK enzyme assay (Ki)
T1 construct: ALK kinase domain (amino acids 1093-1411); made in house
Description: The reactions were incubated for 1 h at room temperature, stopped by the addition of 0.1 M EDTA, pH 8, and the extent of reactions (˜15-20% conversion with no inhibitor) was determined after electrophoretic separation of the fluorescently labeled peptide substrate and phosphorylated product on an LabChip EZ Reader II (Caliper Life Sciences, Hopkinton, Mass.).

[2] = target: T2, human recombinant L1196M ALK kinase domain (amino acids 1093-1411) (Homo sapiens, UniProt Q9UM73, L1196M); test: L1196M mutant ALK enzyme assay (microfluidic mobility shift); type: biochemical; conditions: ATP 60 μM, 0.5 nM enzyme, competitive inhibition fit; read-out: L1196M ALK enzyme assay (Ki)
T2 construct: ALK kinase domain (amino acids 1093-1411); made in house

Row | Compound | Ki [1] | Ki [2]
1 | C[C@H]1Oc2cc(cnc2N)-c2c(cnc3cccnc23)CN(C)C(=O)c2ccc(F)cc21 [Example 103, (11R)-8-amino-13-fluoro-11,17-dimethyl-17,18-dihydro-9,5-(metheno)-[1,5]naphthyridino[4,3-h][2,5,11]benzoxadiazacyclotetradecin-16(11H)-one] | 9.1 nM | 131 nM
2 | CC1Oc2cc(cnc2N)-c2c(C(C)(C)C)nn(C)c2CN(C)C(=O)c2ncccc21 (single isomer, unassigned) [Example 69, 7-amino-3-tert-butyl-1,10,16-trimethyl-16,17-dihydro-1H-8,4-(metheno)pyrazolo[4,3-g]pyrido[2,3-l][1,4,10]oxadiazacyclotetradecin-15(10H)-one] | > 3000 nM | > 3000 nM
3 | CC1Oc2cc(cnc2N)-c2c(cnn2C)CCCCCOc2ccc(F)cc21 (single isomer, unassigned) [Example 131, 12-fluoro-1,14-dimethyl-1,4,5,6,7,8-hexahydro-14H-16,20-(metheno)-pyrazolo-[4,3-g][1,14,11]benzodioxazacycloheptadecin-17-amine] | 78.3 nM | 794 nM
4 | CC1Oc2cc(cnc2N)-c2c(cnn2C)CCCCCOc2ccc(F)cc21 (centres unmarked) [Example 129, 12-fluoro-1,14-dimethyl-1,4,5,6,7,8-hexahydro-14H-16,20-(metheno)-pyrazolo-[4,3-g][1,14,11]benzodioxazacycloheptadecin-17-amine] | 353 nM | > 1500 nM
5 | CC(C)Cn1nnc2c1-c1cnc(N)c(c1)O[C@H](C)c1cc(F)ccc1C(=O)N(C)C2 [Example 134, (10R)-7-amino-12-fluoro-10,16-dimethyl-3-(2-methylpropyl)-16,17-dihydro-3H-8,4-(metheno)[1,2,3]triazolo[4,5-h][2,5,11]benzoxadiazacyclotetradecin-15(10H)-one] | 3 nM | 20.5 nM
6 | COc1c2c(nn1C)CN(C)C(=O)c1ccc(F)cc1C(C)Oc1cc-2cnc1N (single isomer, unassigned) [Example 20, 7-amino-12-fluoro-3-methoxy-2,10,16-trimethyl-16,17-dihydro-2H-8,4-(metheno)pyrazolo[4,3-h][2,5,11]benzoxadiazacyclotetradecin-15(10H)-one] | 34 nM | 450 nM
7 | CC1c2nn(C)c(C#N)c2-c2cnc(N)c(n2)OCc2cc(F)ccc2C(=O)N1C (single isomer, unassigned) [Example 80, 7-amino-12-fluoro-2,16,17-trimethyl-15-oxo-10,15,16,17-tetrahydro-2H-8,4-(azeno)pyrazolo[4,3-h][2,5,11]benzoxadiazacyclotetradecine-3-carbonitrile] | > 3000 nM | > 3000 nM
8 | CC1Oc2cc(cnc2N)-c2c(cnn2C)CCCCCOc2ccc(F)cc21 (single isomer, unassigned) [Example 130, 12-fluoro-1,14-dimethyl-1,4,5,6,7,8-hexahydro-14H-16,20-(metheno)-pyrazolo-[4,3-g][1,14,11]benzodioxazacycloheptadecin-17-amine] | > 3000 nM | > 3000 nM
9 | 7-amino-12-fluoro-3-methoxy-1,16,17-trimethyl-16,17-dihydro-1H-8,4-(azeno)pyrazolo[4,3-h][2,5,11]benzoxadiazacyclotetradecin-15(10H)-one [Example 126] | 540 nM | 1070 nM
10 | CC1Oc2nc(cnc2N)-c2c(nn(C)c2C#N)COCc2ccc(F)cc21 (single isomer, unassigned) [Example 106, 7-amino-12-fluoro-2,10-dimethyl-2,10,15,17-tetrahydro-8,4-(azeno)pyrazolo[4,3-h][2,11,5]benzodioxazacyclotetradecine-3-carbonitrile] | > 3000 nM | > 3000 nM
11 | Cc1nn(S(=O)(=O)N(C)C)c2c1-c1cnc(N)c(c1)OCc1cc(F)ccc1OCCC2 [Example 44, 7-amino-12-fluoro-N,N,3-trimethyl-17,18-dihydro-10H-8,4-(metheno)-pyrazolo[3,4-e][1,12,9]benzodioxazacyclopentadecine-1(16H)-sulfonamide] | 12 nM | 70 nM
12 | CC1Oc2nc(cnc2N)-c2c(nn(C)c2C#N)CN(C)C(=O)c2ccc(F)cc21 (single isomer, unassigned) [Example 33, 7-amino-12-fluoro-2,10,16-trimethyl-15-oxo-10,15,16,17-tetrahydro-2H-8,4-(azeno)pyrazolo[4,3-h][2,5,11]benzoxadiazacyclotetradecine-3-carbonitrile] | 1010 nM | > 2680 nM
13 | CCC1Oc2cc(cnc2N)-c2c(OC)nn(C)c2CN(C)C(=O)c2ccc(F)cc21 (single isomer, unassigned) [Example 24, 7-amino-10-ethyl-12-fluoro-3-methoxy-1,16-dimethyl-16,17-dihydro-1H-8,4-(metheno)pyrazolo[4,3-h][2,5,11]benzoxadiazacyclotetradecin-15(10H)-one] | 4.6 nM | 14 nM
14 | CC1Oc2cc(cnc2N)-c2c(nn(C)c2C2CC2)CN(C)C(=O)c2ccc(F)cc21 (single isomer, unassigned) [Example 16, 7-amino-3-cyclopropyl-12-fluoro-2,10,16-trimethyl-16,17-dihydro-2H-8,4-(metheno)pyrazolo[4,3-h][2,5,11]benzoxadiazacyclotetradecin-15(10H)-one] | 213 nM | > 2270 nM
15 | CCN1Cc2c(c(C)nn2C)-c2cnc(N)c(c2)OC(C)c2cc(F)ccc2C1=O (single isomer, unassigned) [Example 10, 7-amino-16-ethyl-12-fluoro-1,3,10-trimethyl-16,17-dihydro-1H-8,4-(metheno)pyrazolo[4,3-h][2,5,11]benzoxadiazacyclotetradecin-15(10H)-one] | 13 nM | 34 nM
16 | CN1Cc2nn(C)c(C#N)c2-c2cnc(N)c(c2)OC(CF)c2cc(F)ccc2C1=O (single isomer, unassigned) [Example 84, 7-amino-12-fluoro-10-(fluoromethyl)-2,16-dimethyl-15-oxo-10,15,16,17-tetrahydro-2H-8,4-(metheno)pyrazolo[4,3-h][2,5,11]benzoxadiazacyclotetradecine-3-carbonitrile] | 29.3 nM | 90.2 nM
17 | CC1Oc2cc(cnc2N)-c2c(nn(C)c2C#N)CN(C)C(=O)c2c(F)cccc21 (single isomer, unassigned) [Example 53, 7-amino-14-fluoro-2,10,16-trimethyl-15-oxo-10,15,16,17-tetrahydro-2H-8,4-(metheno)pyrazolo[4,3-h][2,5,11]benzoxadiazacyclotetradecine-3-carbonitrile] | 25.8 nM | 164 nM
18 | CC1Oc2cc(cnc2N)-c2c(C(C)(C)C)nn(C)c2CN(C)C(=O)c2ncccc21 (centres unmarked) [Example 67, 7-amino-3-tert-butyl-1,10,16-trimethyl-16,17-dihydro-1H-8,4-(metheno)pyrazolo[4,3-g]pyrido[2,3-l][1,4,10]oxadiazacyclotetradecin-15(10H)-one] | 411 nM | > 1500 nM
19 | CC1Oc2cc(cnc2N)-c2c(nn(C)c2C2CC2)CN(C)C(=O)c2ccc(F)cc21 (single isomer, unassigned) [Example 15, 7-amino-3-cyclopropyl-12-fluoro-2,10,16-trimethyl-16,17-dihydro-2H-8,4-(metheno)pyrazolo[4,3-h][2,5,11]benzoxadiazacyclotetradecin-15(10H)-one] | < 0.2 nM | 2.5 nM
